Laboratory results: ChEMBL document CHEMBL1201862, “PubChem BioAssay data set” (2004)
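Results reflect a 48-hour exposure of cells in 96-well plates to compound at five concentrations. The concentration for 50% growth inhibition is given as GI50.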 Active and inactive are the calls of the source. Rule as the data show it: active = GI50 up to about 1.1 µM and inactive = higher.

Tests used:
Assay in all cases: NCI tumour cell line growth inhibition, 48 h
[1] = system: OVCAR-3
[2] = system: SK-MEL-28
[3] = system: M14
[4] = system: COLO 205
[5] = system: OVCAR-5
[6] = system: SF-268
[7] = system: NCI-H226
[8] = system: MOLT-4
[9] = system: SN12C
[10] = system: CCRF-CEM
[11] = system: K562
[12] = system: IGROV-1
[13] = system: A549
[14] = system: UACC-257
[15] = system: HOP-92
[16] = system: KM12
[17] = system: HOP-62
[18] = system: NCI-H23
[19] = system: RPMI-8226

Measured: GI50

COc1cccc2nc3cc(C)c(C)cc3nc12
inactive: [1] > 100 µM | [2] > 100 µM | [3] > 100 µM | [4] > 100 µM | [5] > 100 µM | [6] > 100 µM | [7] > 100 µM | [8] > 100 µM | [9] > 100 µM | [10] > 100 µM | [11] > 100 µM | [12] > 100 µM | [13] > 100 µM | [14] > 100 µM | [15] > 100 µM | [16] > 100 µM | [17] > 100 µM | [18] > 100 µM

O=C(O)CCSC(=S)Nc1cccc(F)c1
inactive: [1] 33.7 µM | [2] 28 µM | [3] 37.1 µM | [4] 57.5 µM | [5] > 100 µM | [6] 45.6 µM | [7] 33.7 µM | [8] 30 µM | [9] 60.8 µM | [11] 32.3 µM | [12] 29.2 µM | [13] 77.4 µM | [19] 31.6 µM | [14] 22.3 µM | [15] 25 µM | [16] 42.1 µM | [17] 56.4 µM | [18] 36.1 µM

CCNC(=O)/C=C/CCC#Cc1ccc(-c2ccc(-c3cccs3)s2)s1
inactive: [1] > 100 µM | [3] 5.61 µM | [4] 1.63 µM | [5] > 100 µM | [6] > 100 µM | [7] > 100 µM | [8] > 100 µM | [10] > 100 µM | [12] > 100 µM | [13] > 100 µM | [19] > 100 µM | [14] > 100 µM | [15] > 100 µM | [16] > 100 µM | [17] > 100 µM | [18] > 100 µM

COc1cc2cc[n+](C)c(Cc3ccccc3)c2cc1OC
inactive: [1] > 100 µM | [2] > 100 µM | [3] > 100 µM | [4] > 100 µM | [5] > 100 µM | [6] > 100 µM | [7] > 100 µM | [8] > 100 µM | [9] > 100 µM | [10] > 100 µM | [11] > 100 µM | [12] > 100 µM | [13] > 100 µM | [19] > 100 µM | [14] > 100 µM | [15] 96.6 µM | [16] > 100 µM | [18] > 100 µM

CCOC(=O)/C(O)=C/c1cc(OC)cc(=O)o1
inactive: [1] > 100 µM | [2] > 100 µM | [3] > 100 µM | [4] > 100 µM | [5] > 100 µM | [6] > 100 µM | [7] > 100 µM | [8] > 100 µM | [9] > 100 µM | [10] > 100 µM | [11] > 100 µM | [12] > 100 µM | [13] > 100 µM | [19] > 100 µM | [14] > 100 µM | [15] > 100 µM | [16] > 100 µM | [18] > 100 µM

CC1CCc2c(sc3ncnc(N/N=C/c4ccc(Cl)cc4)c23)C1 (stereo unspecified)
inactive: [1] 35.4 µM | [2] 32.3 µM | [3] 28 µM | [4] 31.6 µM | [5] > 100 µM | [6] 25.1 µM | [7] 11.7 µM | [8] 20.6 µM | [9] 33.4 µM | [10] > 10 µM | [11] 18.6 µM | [12] 53.1 µM | [13] 31 µM | [19] 29.9 µM | [14] 29.8 µM | [17] 41.9 µM | [18] 32.8 µM

O=C1N2Cc3c4ccc5c3CN3C(=O)N6Cc7c(ccc(c7CN1C6(c1ccccc1)C23c1ccccc1)OCCOCCOc1cc(Br)c(Br)cc1OCCOCCO4)OCCOCCOc1cc(Br)c(Br)cc1OCCOCCO5 (stereo unspecified)
inactive: [1] > 100 µM | [2] > 100 µM | [3] 21.9 µM | [6] > 100 µM | [7] > 100 µM | [8] > 100 µM | [9] 39.3 µM | [10] > 100 µM | [11] > 100 µM | [12] 44 µM | [13] > 100 µM | [19] > 100 µM | [14] > 100 µM | [15] 39.2 µM | [16] > 100 µM | [17] 40.8 µM | [18] > 100 µM

CSc1nc2c(nc(N)n2C2OC(CO)C(O)C(O)C2O)c(=O)n1C (stereo unspecified)
inactive: [1] > 100 µM | [2] > 100 µM | [3] > 100 µM | [4] > 100 µM | [6] > 100 µM | [7] > 100 µM | [8] > 100 µM | [9] > 100 µM | [10] > 100 µM | [11] > 100 µM | [12] > 100 µM | [13] > 100 µM | [14] > 100 µM | [15] > 100 µM | [16] > 100 µM | [17] > 100 µM | [18] > 100 µM

Cn1c(=O)c(NC(=O)C(Cl)(Cl)Cl)nc2ccccc21
inactive: [1] > 100 µM | [2] > 100 µM | [3] > 100 µM | [4] > 100 µM | [6] > 100 µM | [7] 81.8 µM | [8] > 100 µM | [9] > 100 µM | [10] > 100 µM | [11] > 100 µM | [12] > 100 µM | [13] > 100 µM | [19] > 100 µM | [14] > 100 µM | [16] > 100 µM | [17] > 100 µM | [18] > 100 µM

C=CCN1C(=O)CS/C1=N\NC(=O)c1c(C)nc2sccn12
inactive: [1] > 100 µM | [2] > 100 µM | [4] > 100 µM | [5] > 100 µM | [6] > 100 µM | [7] > 100 µM | [8] > 100 µM | [9] > 100 µM | [10] > 100 µM | [11] > 100 µM | [12] > 100 µM | [13] > 100 µM | [19] > 100 µM | [14] > 100 µM | [15] > 100 µM | [16] > 100 µM | [17] > 100 µM | [18] > 100 µM

CCN(CC)CCOC(=O)c1ccc(N)cc1.CCOC(=O)Nc1ccc(S(=O)(=O)OC)cc1.CCOC(=O)Nc1ccc(S(=O)(=O)OC)cc1.Nc1ccc(C(=O)O)c(O)c1
inactive: [1] > 100 µM | [2] > 100 µM | [3] > 100 µM | [5] > 100 µM | [6] > 100 µM | [7] > 100 µM | [8] > 100 µM | [9] > 100 µM | [10] > 100 µM | [11] > 100 µM | [12] > 100 µM | [13] > 100 µM | [14] > 100 µM | [15] > 100 µM | [16] > 100 µM | [17] > 100 µM | [18] > 100 µM
